Data: patent US8816095B2, “Na channels, disease, and related assays and compositions” (Georgetown University, priority 2008, dated 2014)

How the values were obtained:
[1] = molecular target: T1, hERG potassium channels (Homo sapiens, UniProt Q12809); experiment: hERG binding assay ([35S]MK-499 displacement); conditions: [35S]MK-499, HEK-293 hERG membranes
T1 construct: expressed in transfected cells; host or cells: HEK-293 (membranes)
Excerpt: All four compounds were also counter-screened for human ether-a-go-go-related gene (hERG) activity against the radio-ligand MK-0499. Blockade of hERG K^+ channels is widely regarded as the predominant cause of drug-induced QT prolongation. (Aronov, A J Med Chem. 2006 Nov. 16; 49(23):6917-21).
MK-499, a potent hERG blocker, was used in a ligand binding assay to evaluate the binding of test compounds to hERG potassium channels as previously described (Wang, J et al. Am J Physiol Heart Circ Physiol, 2003, 284: H256-H267).^2 Test compounds were incubated with 0.05 nM of radiolabeled MK-499 ([35S]MK-499; specific Activity=1,279,010 μCi/μmol) in an assay buffer solution (70 mM NaCl, 60 mM KCl, 10 mM HEPES/NaOH (pH 7.4), 2 mM MgCl2, 1 mM CaCl2) also containing membranes isolated from HEK-293 cells stably expressing hERG channels in 96 well polypropylene deep-well assay plates at room temperature (25° C.) for >90 min. Assay plates were rinsed three time with buffer (130 mM NaCl, 10 mM HEPES/NaOH (pH 7.4), 2 mM MgCl2, 1 mM CaCl2) and the solution transferred to a Packard FilterMate Universal Harvester apparatus and filtered using PerkinElmer UniFilter-96 GF/C 96-well white microplates pre-soaked with 0.3% BSA (10 mL/L of 30% BSA). Plates were dried overnight at 37° C., or for 2 hrs at 56° C. The bottom of the plates were sealed and 0.025 mL of Microscint 0 was added to each well. The plates were top sealed and counted for 2 min/well in a Packard TopCount Scintillation counter. Test compounds were evaluated in a five point titration format using half-log steps from 0.3 μM to 30 μM. […] Less than 5% of the added radioactivity was retained on the filters. Assays were performed in triplicate.

[2] = molecular target: T2, hNav1.7 (Homo sapiens, UniProt Q15858); experiment: Fluorescent (FRET) based sodium channel assay, hNav1.7; type: cell-based; conditions: HEK293 stably transfected with hNav1.7, 20 μM veratridine, read-out: hNav 1.7 IC50
T2 construct: expressed in transfected cells; host or cells: HEK293
Protocol: Two isoforms of the channel were examined: hNav1.5, a cardiac sodium channel associated with arrhythmias, and hNav1.7, an isoform found in the peripheral nervous system.
HEK293 cells stably transfected with either hNav1.5 or hNav1.7 were plated at approximately 11,000-20,000 cells/well in flat bottom, poly-D-lysine coated black-wall, clear-bottom, 384-well plates (Becton Dickinson, Bedford, Mass.), and incubated overnight at 37° C. in a 10% CO2 atmosphere in growth medium. Cells were washed with 0.03 mL of Dulbecco's phosphate buffered saline (D-PBS) containing calcium and magnesium. Cells were then incubated with 0.025 mL of a solution containing 10 μM CC2-DMPE and 0.02% pluronic acid in D-PBS with calcium and magnesium; supplemented with 10 mM glucose, and 10 mM Hepes-NaOH, pH 7.4. […] Afterwards, cells were incubated in the dark at 25° C. for 45 min with 0.025 mL of a solution containing 5 μM DiSBAC2(3) in VIPR-S, in the absence or presence of test compound. At the end of the incubation period, the plate was placed in a FLIPR TETRA instrument (MDS Analytical Technologies, Sunnyvale Calif.), illuminated at 390-420 nm, and fluorescence emissions were recorded at approximately 1 Hz at 460 and 580 nm. Following a 7 second baseline reading, 0.025 mL of VIPR-S containing 10 μM veratridine for Nav1.5 or 20 μM veratridine for Nav1.7 was added to each well, and the emissions of both dyes were recorded for an additional 33 seconds. The change in fluorescence resonance energy transfer (FRET) ratio (F/F0) was calculated as: F/F0=((A460/A580/(I460/I580) where A and I represent the readings after or before addition of veratridine, respectively, at the indicated wavelengths. For I, the readings from 2-5 seconds were averaged, and for A, readings from 3 seconds after the signal had reached a plateau level (usually within 30-40 s) were also averaged. Triplicate measurements were performed for each experimental condition and the data were averaged.

[3] = molecular target: T3, human Nav channel isoform, Nav1.2 (Homo sapiens, UniProt Q99250); experiment: Patch clamp electrophysiology of compound 1 on Nav1.2 in HEK 293; type: cell-based; conditions: HEK293, HEK 293 Nav1.2, holding −60 mV to +10 mV, read-out: inhibition of Nav channel current
T3 construct: expressed in transfected cells; host or cells: HEK 293
Protocol: The effects of the racemic mixture and enantiomers of compound 1 were also examined by patch clamp electrophysiology on the human Nav channel isoform, Nav1.2, stably expressed in human embryonic kidney cells (HEK 293). Nav currents were elicited by step depolarizations from a holding potential of −60 mV to +10 mV for 25 ms at 15 s intervals. Sodium currents were record during a control drug free condition, after 5 mins of drug perfusion and following washout. […] The racemic mixture inhibited the sodium channel current by 31.9±2.9% (n=3) at 1 μM and by 87.0±3.1% (n=3) at 10 μM (FIG. 14). All drug effects were fully reversible on washout.
Sodium currents were recorded using the whole-cell configuration of the patch clamp recording technique with an Axopatch 200 amplifier (Axon Instruments, Foster City, Calif.). All voltage protocols were applied using pCLAMP 9 software (Axon, USA) and a Digidata 1322A (Axon, USA). Currents were amplified and low pass filtered (2 kHz) and sampled at 33 kHz. Borosilicate glass pipettes were pulled using a Brown-Flaming puller (model P87, Sutter Instruments Co, Novato, Calif.) and heat polished to produce electrode resistances of 1.5-3.0 MΩ when filled with the following electrode solution (in mM); CsCl 130, MgCl2 1, MgATP 5, BAPTA 10, HEPES 5 (pH adjusted to 7.4 with CsOH). Cells were plated on glass coverslips and superfused with solution containing the following composition; (in mM) NaCl 130, KCl 4, CaCl2 1, MgCl2 5, HEPES 5, and glucose 5 (pH adjusted to 7.4 with NaOH). Compounds were prepared as 100 mM stock solutions in dimethyl sulfoxide (DMSO) and diluted to desired concentration (1 μM or 10 μM) in perfusion solution. All experiments were performed at room temperature (20-22° C.). After establishing whole-cell, a minimum series resistance compensation of 75% was applied and cells were held at −100 mV for 5 minutes to account for equilibrium gating shifts. Sodium currents were evoked by stepping to +10 mV from a holding potential of −60 mV for 25 ms at 15 s intervals. After control recordings, test compounds were applied for five minutes to allow for bath equilibration. Tonic block was assessed by comparing peak sodium current in drug free conditions to peak current when drug was present. Data analysis was performed using Clampfit software (v9, Axon Instruments, CA, USA) and Origin (v6, Microcal Software, MA, USA).

[4] = test system: CWR22rv-1 cells; experiment: CWR22rv-1 prostate cancer cell death (propidium iodide, FACS); type: cell-based, human
Protocol: CWR22Rv1 cells (ATCC, Manassas, Va.) were seeded in 6 well tissue culture plate at density of 300,000 cells/well and maintained in RPMI 1640 (Mediatech, Herndon, Va.) containing 10% fetal bovine serum, 2.5 mM L-glutamine, and penicillin-streptomycin (100 IU/ml and 100 μg/ml, respectively) at 37° C. with 5% CO2. Cells were then switched to serum free RPMI media overnight prior to drug treatment. Compounds were dissolved in 100% dimethylsulfoxide (DMSO) and diluted to the desired concentrations in serum free RPMI. Cells were treated with indicated drug concentrations (in triplicate per treatment point) for 24, 48, 72 hour. After treatment, cells were harvested by trypsinization and fixed in 70% ethanol. The fixed cells were then stained with propidium iodide (50 μg/ml) after treatment with RNase (5 μg/ml). The stained cells were analyzed for DNA content using FACSsort (Becton Dickinson). Cell cycle fractions were quantified with Cell Quest (Becton Dickinson) or ModFit LT (Verity Software House).

[5] = test system: human prostate tissue; experiment: Staining of human prostate paraffin embedded tissue slices; conditions: 100 μM
Protocol: The binding and localization of compound 26 in prostate and prostate cancer tissue was studied. Human prostate paraffin embedded tissue slices were stained with 100 μM of compound 26 and dansyl amine.

T1 sequence (Q12809 whole entry): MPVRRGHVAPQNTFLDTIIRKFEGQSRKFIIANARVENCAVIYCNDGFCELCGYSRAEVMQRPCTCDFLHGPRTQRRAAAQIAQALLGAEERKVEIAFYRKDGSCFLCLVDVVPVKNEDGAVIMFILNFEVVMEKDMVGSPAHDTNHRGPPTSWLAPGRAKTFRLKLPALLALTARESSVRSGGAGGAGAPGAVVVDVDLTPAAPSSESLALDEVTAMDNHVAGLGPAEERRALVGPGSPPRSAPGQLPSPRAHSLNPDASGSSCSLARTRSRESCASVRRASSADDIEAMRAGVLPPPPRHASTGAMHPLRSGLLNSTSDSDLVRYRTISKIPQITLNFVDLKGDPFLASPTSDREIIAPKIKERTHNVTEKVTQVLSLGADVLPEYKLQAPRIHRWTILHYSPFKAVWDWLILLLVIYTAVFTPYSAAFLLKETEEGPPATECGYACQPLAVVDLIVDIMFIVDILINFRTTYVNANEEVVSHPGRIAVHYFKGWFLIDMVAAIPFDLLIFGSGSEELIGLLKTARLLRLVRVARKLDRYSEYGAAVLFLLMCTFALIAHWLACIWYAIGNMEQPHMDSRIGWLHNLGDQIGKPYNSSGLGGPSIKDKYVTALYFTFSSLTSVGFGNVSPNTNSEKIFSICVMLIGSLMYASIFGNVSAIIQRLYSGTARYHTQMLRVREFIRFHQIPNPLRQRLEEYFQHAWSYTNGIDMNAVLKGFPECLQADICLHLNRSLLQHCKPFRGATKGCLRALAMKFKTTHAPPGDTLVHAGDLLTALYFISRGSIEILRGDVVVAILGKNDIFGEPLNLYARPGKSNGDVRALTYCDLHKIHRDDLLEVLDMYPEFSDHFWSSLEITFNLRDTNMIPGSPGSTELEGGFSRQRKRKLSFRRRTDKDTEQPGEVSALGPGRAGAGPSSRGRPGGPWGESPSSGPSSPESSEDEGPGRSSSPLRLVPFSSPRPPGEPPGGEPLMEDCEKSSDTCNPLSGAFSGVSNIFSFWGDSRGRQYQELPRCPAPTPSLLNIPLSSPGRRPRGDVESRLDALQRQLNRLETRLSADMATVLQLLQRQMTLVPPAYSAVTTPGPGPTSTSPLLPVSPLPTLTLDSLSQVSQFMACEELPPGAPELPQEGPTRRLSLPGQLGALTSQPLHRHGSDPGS
T3 sequence (Q99250 whole entry, canonical isoform): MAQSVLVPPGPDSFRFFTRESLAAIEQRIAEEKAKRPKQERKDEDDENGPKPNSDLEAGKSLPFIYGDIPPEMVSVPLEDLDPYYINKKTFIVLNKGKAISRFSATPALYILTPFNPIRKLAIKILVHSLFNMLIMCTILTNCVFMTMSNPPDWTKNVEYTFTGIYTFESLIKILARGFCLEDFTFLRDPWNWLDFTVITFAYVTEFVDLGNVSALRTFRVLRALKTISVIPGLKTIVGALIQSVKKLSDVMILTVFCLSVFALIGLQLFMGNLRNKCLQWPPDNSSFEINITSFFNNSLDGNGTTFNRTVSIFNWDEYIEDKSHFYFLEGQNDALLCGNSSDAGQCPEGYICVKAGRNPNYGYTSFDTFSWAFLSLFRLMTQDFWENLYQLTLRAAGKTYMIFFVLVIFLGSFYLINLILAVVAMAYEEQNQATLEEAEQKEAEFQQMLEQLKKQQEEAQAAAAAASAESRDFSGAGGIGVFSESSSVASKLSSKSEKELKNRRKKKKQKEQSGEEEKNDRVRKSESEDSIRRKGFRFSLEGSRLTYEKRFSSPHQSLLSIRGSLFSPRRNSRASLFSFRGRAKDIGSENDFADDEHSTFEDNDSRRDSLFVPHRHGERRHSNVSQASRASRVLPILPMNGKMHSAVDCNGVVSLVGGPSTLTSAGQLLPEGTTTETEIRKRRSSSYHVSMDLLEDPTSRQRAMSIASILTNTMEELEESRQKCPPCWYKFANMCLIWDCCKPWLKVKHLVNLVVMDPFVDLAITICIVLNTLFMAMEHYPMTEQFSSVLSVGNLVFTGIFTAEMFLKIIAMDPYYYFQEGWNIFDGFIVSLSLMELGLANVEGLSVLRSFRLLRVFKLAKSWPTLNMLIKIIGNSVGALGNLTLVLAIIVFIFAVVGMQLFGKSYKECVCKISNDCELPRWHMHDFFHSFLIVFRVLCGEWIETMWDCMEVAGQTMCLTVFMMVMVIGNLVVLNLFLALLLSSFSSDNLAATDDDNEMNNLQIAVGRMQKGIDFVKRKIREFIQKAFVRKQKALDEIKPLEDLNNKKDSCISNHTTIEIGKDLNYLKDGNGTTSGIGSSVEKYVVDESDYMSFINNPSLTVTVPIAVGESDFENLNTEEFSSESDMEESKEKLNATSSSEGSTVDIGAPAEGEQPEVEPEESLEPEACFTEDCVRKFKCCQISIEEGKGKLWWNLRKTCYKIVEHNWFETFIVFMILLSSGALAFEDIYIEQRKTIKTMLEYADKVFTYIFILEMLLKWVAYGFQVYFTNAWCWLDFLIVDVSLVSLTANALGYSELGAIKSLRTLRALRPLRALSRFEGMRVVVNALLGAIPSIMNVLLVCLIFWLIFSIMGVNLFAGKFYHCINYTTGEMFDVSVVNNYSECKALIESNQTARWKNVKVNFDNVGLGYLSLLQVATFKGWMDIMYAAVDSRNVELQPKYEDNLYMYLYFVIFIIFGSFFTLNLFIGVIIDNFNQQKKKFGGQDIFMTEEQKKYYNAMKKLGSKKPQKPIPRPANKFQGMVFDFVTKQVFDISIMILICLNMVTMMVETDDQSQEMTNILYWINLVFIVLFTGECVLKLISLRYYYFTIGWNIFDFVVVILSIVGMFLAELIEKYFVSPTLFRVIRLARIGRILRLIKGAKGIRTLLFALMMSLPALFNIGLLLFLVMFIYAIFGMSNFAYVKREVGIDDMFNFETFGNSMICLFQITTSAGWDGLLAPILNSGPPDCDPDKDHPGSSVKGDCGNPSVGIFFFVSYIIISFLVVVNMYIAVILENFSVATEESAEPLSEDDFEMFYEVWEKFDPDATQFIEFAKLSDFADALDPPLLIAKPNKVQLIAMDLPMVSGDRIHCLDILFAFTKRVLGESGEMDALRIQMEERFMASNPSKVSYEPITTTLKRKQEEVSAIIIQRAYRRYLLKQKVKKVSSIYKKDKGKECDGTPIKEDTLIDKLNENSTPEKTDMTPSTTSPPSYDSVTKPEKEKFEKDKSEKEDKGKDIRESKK
T2 sequence (Q15858 whole entry): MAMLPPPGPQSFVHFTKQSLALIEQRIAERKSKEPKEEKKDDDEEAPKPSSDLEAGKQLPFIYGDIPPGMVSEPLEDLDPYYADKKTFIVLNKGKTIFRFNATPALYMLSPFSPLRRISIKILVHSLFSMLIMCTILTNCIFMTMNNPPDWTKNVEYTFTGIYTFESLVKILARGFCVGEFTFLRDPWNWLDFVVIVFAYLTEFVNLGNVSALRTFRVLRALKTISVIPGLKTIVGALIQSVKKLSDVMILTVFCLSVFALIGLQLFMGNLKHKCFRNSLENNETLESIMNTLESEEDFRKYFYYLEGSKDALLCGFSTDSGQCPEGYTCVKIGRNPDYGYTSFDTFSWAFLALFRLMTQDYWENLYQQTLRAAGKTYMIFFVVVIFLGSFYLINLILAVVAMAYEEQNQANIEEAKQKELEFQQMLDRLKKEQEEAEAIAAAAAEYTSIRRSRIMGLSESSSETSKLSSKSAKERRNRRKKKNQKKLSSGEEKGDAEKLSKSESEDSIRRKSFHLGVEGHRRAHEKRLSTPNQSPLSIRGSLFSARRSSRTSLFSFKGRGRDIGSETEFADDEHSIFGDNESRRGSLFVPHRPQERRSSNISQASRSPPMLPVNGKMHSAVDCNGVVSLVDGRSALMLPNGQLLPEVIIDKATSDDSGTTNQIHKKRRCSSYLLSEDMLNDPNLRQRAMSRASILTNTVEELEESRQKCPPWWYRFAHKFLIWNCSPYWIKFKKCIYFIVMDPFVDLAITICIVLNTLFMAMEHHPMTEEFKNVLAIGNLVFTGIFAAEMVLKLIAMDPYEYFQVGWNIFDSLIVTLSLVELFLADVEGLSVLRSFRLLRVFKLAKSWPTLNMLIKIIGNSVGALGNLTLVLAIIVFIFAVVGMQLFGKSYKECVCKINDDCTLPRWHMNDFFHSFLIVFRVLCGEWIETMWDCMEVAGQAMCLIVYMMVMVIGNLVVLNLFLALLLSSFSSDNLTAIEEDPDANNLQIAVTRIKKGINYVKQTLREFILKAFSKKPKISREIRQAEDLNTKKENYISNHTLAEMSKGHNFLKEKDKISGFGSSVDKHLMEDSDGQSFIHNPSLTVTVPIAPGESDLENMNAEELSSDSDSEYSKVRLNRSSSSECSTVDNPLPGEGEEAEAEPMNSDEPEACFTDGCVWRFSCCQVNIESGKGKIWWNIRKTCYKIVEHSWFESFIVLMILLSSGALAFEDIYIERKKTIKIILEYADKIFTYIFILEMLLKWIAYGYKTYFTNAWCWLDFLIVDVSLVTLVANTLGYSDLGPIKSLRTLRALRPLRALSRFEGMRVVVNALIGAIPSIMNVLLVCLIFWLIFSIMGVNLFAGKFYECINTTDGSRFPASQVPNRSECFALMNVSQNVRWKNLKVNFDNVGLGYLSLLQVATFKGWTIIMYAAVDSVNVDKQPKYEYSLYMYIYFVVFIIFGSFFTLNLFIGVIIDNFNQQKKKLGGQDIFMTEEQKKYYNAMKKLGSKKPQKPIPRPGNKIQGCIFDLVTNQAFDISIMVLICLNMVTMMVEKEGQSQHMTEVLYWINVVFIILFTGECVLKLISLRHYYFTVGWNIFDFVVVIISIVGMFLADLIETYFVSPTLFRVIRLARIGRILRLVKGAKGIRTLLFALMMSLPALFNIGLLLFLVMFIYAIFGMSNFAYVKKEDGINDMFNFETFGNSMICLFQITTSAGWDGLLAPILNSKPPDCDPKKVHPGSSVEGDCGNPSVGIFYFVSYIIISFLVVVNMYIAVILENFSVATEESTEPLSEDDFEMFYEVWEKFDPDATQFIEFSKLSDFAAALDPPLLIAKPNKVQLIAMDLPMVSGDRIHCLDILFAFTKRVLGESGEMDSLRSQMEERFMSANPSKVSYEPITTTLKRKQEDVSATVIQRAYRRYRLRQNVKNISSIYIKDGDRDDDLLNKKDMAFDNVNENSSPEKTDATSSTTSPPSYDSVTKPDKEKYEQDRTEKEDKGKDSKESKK

SMILES | % inhibition for hERG assay, 0.3 μM [1] | % inhibition for hERG assay, 1 μM [1] | % inhibition for hERG assay, 3 μM [1] | % inhibition for hERG assay, 10 μM [1] | % inhibition for hERG assay, 30 μM [1] | IC50 [2] | inhibition at 1 µM [3] | inhibition at 10 µM [3] | cell death of CWR22rv-1 cells ([4]; 25 μM, after 24 h) | cell death of CWR22rv-1 cells ([4]; after 72 h) | binding to human prostate tissue (microscopy) [5]
CCCCCCC[C@](O)(C(N)=O)c1cccc(Cl)c1 [Compound (R)-(−)-1, (R)-(−)-2-(3-chloro-phenyl)-2-hydroxy-nonanoic acid amide] | 16% | 26% | 20% | 57% | 90% | 1880 nM | 67.4 ± 5.3% | 94.3 ± 0.6% | approximately 25% | 60% | –
CN(C)c1cccc2c(S(N)(=O)=O)cccc12 [dansyl amine, reference compound] | – | – | – | – | – | – | – | – | – | – | does not bind
CCCCCCC[C@@](O)(C(N)=O)c1cccc(Cl)c1 [Compound (S)-(+)-1, (S)-(+)-2-(3-chloro-phenyl)-2-hydroxy-nonanoic acid amide] | 10% | 25% | 33% | 65% | 90% | 2620 nM | 34.9 ± 2.3% | 91.5 ± 0.5% | marginal effects | 40% | –
